Reference: patent US6372209B1, “Vaginal lactobacillus medicant” (Gyne Logix, Inc., priority 1997, dated 2002)

Tests used:
women = assay: Pooled clinical trials with the CTV-05 suppository (Examples 5-7); type: in vivo, human
From the text: The studies presented in Examples 5 6, and 7 have shown that the Lactobacilli of the present invention can be used in a suppository to recolonize the vagina with Lactobacilli. Over fifty women have been included in clinical trials with the Lactobacillus crispatus CTV-05 suppository. […] Furthermore, the present inventors have developed fingerprinting methods which allow the identification of the suppository strain of L. crispatus in human trials.

[1] = tested on: Candida albicans ATCC 60193 (cervical isolate); assay: Agar overlay zone of inhibition of yeast growth; type: cell-based
Description: MRS agar was allowed to harden at a 5 mm slant. Lactobacillus crispatus CTV-05 was streaked across the diameter of the plate and was grown for 24, 48 or 72 hours under both anaerobic and ambient atmospheres. Control strains of Lactobacillus jensenii CTV-01, Lactobacillus crispatus CTV-02, Lactobacillus crispatus CTV-03, and Lactobacillus crispatus CTV-04 were grown in the same way. The plates were overlayed with YM agar with 10 mM CNNaS (sodium thiocyanate, previously reported to be an inhibitor of yeast growth) or without CNNaS. The agar overlays were inoculated with one of two strains of Candida albicans ATCC 60193 (cervical isolate) or Candida albicans ATCC 14053 (human blood isolate). Zones of inhibition were measured. […] Therefore, Lactobacillus crispatus CTV-05 inhibits yeast growth in vitro.

Lactobacillus crispatus CTV-05
women with normal vaginal flora remaining colonized (women; after one month, gelatin capsule inserted into the vagina): greater than 80% | side effects associated with use (women; over fifty women in clinical trials): None of the women who received the suppository had any side effects | inhibition of Candida growth ([1]; Lactobacillus grown anaerobically for 24, 48 or 72 hours): effectively inhibited growth | inhibition of Candida growth ([1]; Lactobacillus grown under ambient atmosphere, with or without CNNaS): unable to inhibit | Zone of Inhibition (in millimeters) ([1]; Organism Growth Time Period 48 hours): 70 to 0 mm | Zone of Inhibition (in millimeters) ([1]; Organism Growth Time Period 72 hours): 70 to 0 mm
